Consider 23 compounds from article PMC9697818, “Design, Synthesis and Biological Assessment of Rhodanine-Linked Benzenesulfonamide Derivatives as Selective and Potent Human Carbonic Anhydrase Inhibitors” (Molecules, 2022).

Molecules are shown by their SMILES. pKi: −log10 of the molar value.

What all share (assay): stopped-flow CO2 hydration assay
Type in all cases: biochemical

One test addresses T1, hCA II (Homo sapiens, UniProt P00918).
T1 construct: gene CA2; recombinant, cytosolic isoform
In short, it runs like this:
(§1)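 Ki values for recombinant human carbonic anhydrase isozymes were derived by non-linear least-squares fitting with the Cheng–Prusoff equation and averaged over at least three determinations. The stopped-flow assay followed CO2 hydration for 5–10 s with 0.2 mM Phenol Red at 557 nm in 10 mM Hepes (pH 7.4) with 10 mM NaClO4, using CO2-saturated water at 25 °C and 5–12 nM enzyme. Enzyme and inhibitor were preincubated for 10 min at room temperature, with at least seven inhibitor concentrations reaching down to 0.01 nM.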

For the next test, the target named is T2, hCA XII (Homo sapiens, UniProt O43570).
T2 construct: gene CA12; recombinant, tumor-associated transmembrane isoform
Put shortly:
as §1

The target in a further test is T3, hCA I (Homo sapiens, UniProt P00915).
T3 construct: gene CA1; recombinant, cytosolic isoform
In short, it runs like this:
as §1

The target in another test is T4, hCA IX (Homo sapiens, UniProt Q16790).
T4 construct: gene CA9; recombinant, tumor-associated transmembrane isoform
Put shortly:
as §1

Broadly, the pKi is the Ki on a negative log10 scale, so that one unit is a factor of ten. Lower therefore signals a high Ki.

T3 sequence (P00915 2-261): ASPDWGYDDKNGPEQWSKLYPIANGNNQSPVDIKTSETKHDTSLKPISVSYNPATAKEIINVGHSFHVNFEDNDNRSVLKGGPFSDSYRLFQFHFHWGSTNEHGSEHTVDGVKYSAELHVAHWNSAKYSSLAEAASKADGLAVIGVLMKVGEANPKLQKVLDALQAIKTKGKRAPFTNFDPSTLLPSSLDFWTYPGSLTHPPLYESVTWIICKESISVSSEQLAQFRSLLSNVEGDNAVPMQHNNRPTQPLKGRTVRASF
T2 sequence (O43570 30-289 limits assumed): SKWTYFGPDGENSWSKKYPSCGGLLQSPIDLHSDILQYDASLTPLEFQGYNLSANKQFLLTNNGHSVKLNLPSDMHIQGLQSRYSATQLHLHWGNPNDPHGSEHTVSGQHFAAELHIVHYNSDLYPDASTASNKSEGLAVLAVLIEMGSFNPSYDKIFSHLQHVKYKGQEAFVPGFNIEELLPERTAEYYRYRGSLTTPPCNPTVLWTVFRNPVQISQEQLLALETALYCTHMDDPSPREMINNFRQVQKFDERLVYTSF

Consider `NS(=O)(=O)c1ccc(NC(=O)CN2C(=O)/C(=C\c3ccccc3)SC2=S)cc1` [7a, (E)-2-(5-Benzylidene-4-oxo-2-thioxothiazolidin-3-yl)-N-(4-sulfamoylphenyl)-acetamide], for which the pKi was 7.16 on hCA II, 7.49 on hCA XII, 6.73 at hCA I and 8.06 on hCA IX.
`NS(=O)(=O)c1ccc(NC(=O)CN2C(=O)/C(=C\c3ccc(Cl)cc3)SC2=S)cc1` [7b, (E)-2-(5-(4-Chlorobenzylidene)-4-oxo-2-thioxothiazolidin-3-yl)-N-(4-sulfamoylphenyl)acetamide]: the pKi was 7.29 on hCA II, 8.04 at hCA XII, 6.46 on hCA I and 7.45 on hCA IX.
Take `NS(=O)(=O)c1ccc(NC(=O)CN2C(=O)/C(=C\c3ccc(OC(F)(F)F)cc3)SC2=S)cc1` [7c, (E)-2-(4-Oxo-2-thioxo-5-(4-(trifluoromethoxy)benzylidene)thiazolidin-3-yl)-N-(4-sulfamoylphenyl)acetamide]: the pKi is 6.02 on hCA II, 6.80 on hCA XII, 5.62 on hCA I and 8.01 at hCA IX.
On the same counts, the results for `NS(=O)(=O)c1ccc(NC(=O)CN2C(=O)/C(=C\c3ccccc3F)SC2=S)cc1` [7d, (E)-2-(5-(2-Fluorobenzylidene)-4-oxo-2-thioxothiazolidin-3-yl)-N-(4-sulfamoylphenyl)acetamide] are 6.86, 7.18, 6.65 and 7.84.
On the same counts, the results for `NS(=O)(=O)c1ccc(NC(=O)CN2C(=O)/C(=C\c3ccc(C(F)(F)F)cc3)SC2=S)cc1` [7e, (E)-2-(4-Oxo-2-thioxo-5-(4-(trifluoromethyl)benzylidene)thiazolidin-3-yl)-N-(4-sulfamoylphenyl)acetamide] are 7.11, 8.02, 6.07 and 8.10.
On the same counts, the results for `C=CCOc1ccc(/C=C2/SC(=S)N(CC(=O)Nc3ccc(S(N)(=O)=O)cc3)C2=O)cc1` [7f, (E)-2-(5-(4-(Allyloxy)benzylidene)-4-oxo-2-thioxothiazolidin-3-yl)-N-(4-sulfamoylphenyl)acetamide] are 6.49, 7.17, 6.16 and 8.25.
Regarding `COc1cc(/C=C2/SC(=S)N(CC(=O)Nc3ccc(S(N)(=O)=O)cc3)C2=O)cc(OC)c1OC` [7g, (E)-2-(4-Oxo-2-thioxo-5-(3,4,5-trimethoxybenzylidene)thiazolidin-3-yl)-N-(4-sulfamoylphenyl)acetamide], the pKi is 7.50 on hCA II, 7.34 on hCA XII, 6.76 at hCA I and 8.38 at hCA IX.
Consider `CCOc1cc(/C=C2/SC(=S)N(CC(=O)Nc3ccc(S(N)(=O)=O)cc3)C2=O)ccc1O` [7h, (E)-2-(5-(3-Ethoxy-4-hydroxybenzylidene)-4-oxo-2-thioxothiazolidin-3-yl)-N-(4-sulfamoylphenyl)acetamide], for which the pKi at hCA II was 8.14; at hCA XII, 7.20; on hCA I, 7.65; at hCA IX, 8.25.
On the same counts, the results for `N#Cc1ccc(/C=C2/SC(=S)N(CC(=O)Nc3ccc(S(N)(=O)=O)cc3)C2=O)cc1` [7i, (E)-2-(5-(4-Cyanobenzylidene)-4-oxo-2-thioxothiazolidin-3-yl)-N-(4-sulfamoylphenyl)acetamide] are 7.25, 8.05, 6.90 and 8.14.
On the same counts, the results for `COc1cccc(/C=C2/SC(=S)N(CC(=O)Nc3ccc(S(N)(=O)=O)cc3)C2=O)c1` [7j, (E)-2-(5-(3-Methoxybenzylidene)-4-oxo-2-thioxothiazolidin-3-yl)-N-(4-sulfamoylphenyl)acetamide] are 7.34, 7.13, 6.64 and 7.80.
On the same counts, the results for `COc1ccc(/C=C2/SC(=S)N(CC(=O)Nc3ccc(S(N)(=O)=O)cc3)C2=O)cc1` [7k, (E)-2-(5-(4-Methoxybenzylidene)-4-oxo-2-thioxothiazolidin-3-yl)-N-(4-sulfamoylphenyl)acetamide] are 7.90, 7.24, 7.10 and 8.03.
`CC(C)c1ccc(/C=C2/SC(=S)N(CC(=O)Nc3ccc(S(N)(=O)=O)cc3)C2=O)cc1` [7l, (E)-2-(5-(4-Isopropylbenzylidene)-4-oxo-2-thioxothiazolidin-3-yl)-N-(4-sulfamoylphenyl)acetamide]: the pKi was 7.16 at hCA II, 7.38 at hCA XII, 6.37 on hCA I and 7.29 on hCA IX.
Consider `NS(=O)(=O)c1ccc(NC(=O)CN2C(=O)/C(=C\c3cccc(Oc4ccccc4)c3)SC2=S)cc1` [7m, (E)-2-(4-Oxo-5-(3-phenoxybenzylidene)-2-thioxothiazolidin-3-yl)-N-(4-sulfamoylphenyl)acetamide], for which the pKi on hCA II was 7.26; at hCA XII, 7.33; at hCA I, 6.33; on hCA IX it was 7.55.
On the same counts, the results for `COc1ccc(/C=C2/SC(=S)N(CC(=O)Nc3ccc(S(N)(=O)=O)cc3)C2=O)cc1OC` [7n, (E)-2-(5-(3,4-Dimethoxybenzylidene)-4-oxo-2-thioxothiazolidin-3-yl)-N-(4-sulfamoylphenyl)acetamide] are 7.81, 7.41, 7.08 and 8.09.
As to `COc1cc(OC)c(OC)cc1/C=C1/SC(=S)N(CC(=O)Nc2ccc(S(N)(=O)=O)cc2)C1=O` [7o, (E)-2-(4-Oxo-2-thioxo-5-(2,4,5-trimethoxybenzylidene)thiazolidin-3-yl)-N-(4-sulfamoylphenyl)acetamide], the pKi was 6.75 at hCA II, 8.02 at hCA XII, 6.47 on hCA I and 7.46 on hCA IX.
On the same counts, the results for `COc1ccc(/C=C2/SC(=S)N(CC(=O)Nc3ccc(S(N)(=O)=O)cc3)C2=O)c(OC)c1` [7p, (E)-2-(5-(2,4-Dimethoxybenzylidene)-4-oxo-2-thioxothiazolidin-3-yl)-N-(4-sulfamoylphenyl)acetamide] are 8.10, 8.01, 6.41 and 7.75.
For the compound `COc1cc(OC)c(/C=C2/SC(=S)N(CC(=O)Nc3ccc(S(N)(=O)=O)cc3)C2=O)c(OC)c1` [7q, (E)-2-(4-Oxo-2-thioxo-5-(2,4,6-trimethoxybenzylidene)thiazolidin-3-yl)-N-(4-sulfamoylphenyl)acetamide], the pKi on hCA II was 7.27; at hCA XII, 7.58; on hCA I, 6.53; on hCA IX, 7.63.
In the case of `NS(=O)(=O)c1ccc(NC(=O)CN2C(=O)/C(=C\c3ccc(F)c(F)c3)SC2=S)cc1` [7r, (E)-2-(5-(3,4-Difluorobenzylidene)-4-oxo-2-thioxothiazolidin-3-yl)-N-(4-sulfamoylphenyl)acetamide], the pKi was 7.71 at hCA II, 8.02 at hCA XII, 6.67 at hCA I and 7.87 on hCA IX.
In the case of `NS(=O)(=O)c1ccc(NC(=O)CN2C(=O)/C(=C\c3cccc([N+](=O)[O-])c3)SC2=S)cc1` [7s, (E)-2-(5-(3-Nitrobenzylidene)-4-oxo-2-thioxothiazolidin-3-yl)-N-(4-sulfamoylphenyl)acetamide], the pKi is 7.84 at hCA II, 8.05 at hCA XII, 7.11 on hCA I and 8.08 at hCA IX.
On the same counts, the results for `COc1cc(/C=C2/SC(=S)N(CC(=O)Nc3ccc(S(N)(=O)=O)cc3)C2=O)cc(OC)c1O` [7t, (E)-2-(5-(4-Hydroxy-3,5-dimethoxybenzylidene)-4-oxo-2-thioxothiazolidin-3-yl)-N-(4-sulfamoylphenyl)acetamide] are 8.02, 7.52, 7.11 and 8.14.
For `NS(=O)(=O)c1ccc(NC(=O)CN2C(=O)/C(=C\c3ccc([N+](=O)[O-])cc3)SC2=S)cc1` [7u, (E)-2-(5-(4-Nitrobenzylidene)-4-oxo-2-thioxothiazolidin-3-yl)-N-(4-sulfamoylphenyl)acetamide], the pKi was 8.05 at hCA II, 8.02 on hCA XII, 7.15 at hCA I and 8.11 on hCA IX.
On the same counts, the results for `NS(=O)(=O)c1ccc(NC(=O)CN2C(=O)/C(=C3/C(=O)Nc4ccccc43)SC2=S)cc1` [9a, (Z)-2-(4-Oxo-5-(2-oxoindolin-3-ylidene)-2-thioxothiazolidin-3-yl)-N-(4-sulfamoylphenyl)acetamide] are 8.37, 7.25, 7.38 and 8.33.
On the same counts, the results for `Cc1ccc2c(c1)/C(=C1/SC(=S)N(CC(=O)Nc3ccc(S(N)(=O)=O)cc3)C1=O)C(=O)N2` [9b, (Z)-2-(5-(5-Methyl-2-oxoindolin-3-ylidene)-4-oxo-2-thioxothiazolidin-3-yl)-N-(4-sulfamoylphenyl)acetamide] are 8.26, 7.39, 7.04 and 8.05.
